In patent publication US11472838B2, “Inhibitors of blood coagulation factor XIII” (Zedira GmbH, priority 2018, dated 2022):
Where two headings read alike, the source gives them in different places. *1 amine or outer side, *2 acyl side, *3 side chain or, on linkers, in order; H or OH if unused. Where a SMILES comes first, the peptide text is derived from it. [ ]: non-standard residue; d: D form. The star is where a group is joined. ξ: configuration not given here. Benzoyl(3-COOH,5-NO2) = O=C(O)c1cc(C(=O)*)cc([N+](=O)[O-])c1; Benzoyl(2-COOH,5-NO2) = O=C(O)c1ccc([N+](=O)[O-])cc1C(=O)*; Benzoyl(2-COOH-4,5-Cl2) = O=C(O)c1cc(Cl)c(Cl)cc1C(=O)*; Nle(5E-ene,6-CO2Et) = CCOC(=O)/C=C/CC[C@H](N)C(=O)O; Isonicotinoyl(3-COOH) = O=C(O)c1cnccc1C(=O)*; X1 = COC(=O)/C=C/CC[C@H](N[*:1])C(=O)[*:2]; Pro(4-methylene) = C=C1CN[C@H](C(=O)O)C1; X2 = O=C(O)c1cc([N+](=O)[O-])ccc1C(=O)*; Pro(4-oxo) = O=C1CN[C@H](C(=O)O)C1; Thiophene2carbonyl = O=C(c1cccs1)*; Ala(cPr) = N[C@@H](CC1CC1)C(=O)O; Ile(3ξ) = CCC(C)[C@H](N)C(=O)O; Thr(3ξ) = CC(O)[C@H](N)C(=O)O; Chg = N[C@H](C(=O)O)C1CCCCC1; Tle = CC(C)(C)[C@H](N)C(=O)O; X4 = O=C(O)c1cncc(C(=O)*)c1; Pip = O=C(O)[C@@H]1CCCCN1; X7 = O=C(O)c1nccnc1C(=O)*; Nle = CCCC[C@H](N)C(=O)O; NHIsopentyl = CC(C)CCN*; Cbz = O=C(OCc1ccccc1)*

Key:
FXIII = FXIII (Homo sapiens (Human), UniProt P00488); experiment: Inhibitory activity against FXIII (isopeptidase assay), Tables 3 and 4; assay type: biochemical;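 note: FXIIIa activity read with a peptide substrate derived from the α2-antiplasmin N-terminal dodecapeptide, FXIII activated beforehand at room temperature, inhibitor-free wells with DMSO buffer as control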
Method: (§1) FXIIIa activity has been determined using substrate A101 (Zedira GmbH, Darmstadt, Germany), which is based on the N-terminal dodecapeptide of α2-antipiasmin.
(§2) The mixture was incubated for 20 min at room temperature to activate FXIII. […] For measurements without inhibitor, 15 μL of assay buffer/2% (v/v) DMSO were added. All measurements were performed in triplicate. The respective IC50 values were calculated by non-linear regression using the MARS software package (BMG Labtech).

TG2 = TG2 (Homo sapiens (Human), UniProt P21980); experiment: Inhibitory activity against TG2 (isopeptidase assay), Tables 3 and 4; assay type: biochemical; conditions: for Selectivity: TG2 versus FXIII
Method: as §1, §2

in vitro = conditions: for recovery in plasma determined by HPLC: 37° C., over a period of 2 hours; for recovery in plasma determined by HPLC / half-life: plasma
Method: Further, the stability of compounds in plasma was determined as prerequisite for drug-likeness. Briefly, after spiking the chemical entities, the plasma was incubated at 37° C. At certain time points (e.g. at 15 and 120 minutes), 3 vol. cold MeOH were added to extract the compounds. After centrifugation, the supernatant was analyzed by HPLC. The half life was calculated based on the respective calibration curve.

[1] = isopeptidase assay, Table 3, read-out: IC50 [nM] FXIII
[2] = isopeptidase assay, Table 3, read-out: IC50 [nM] TG2

FXIII, sequence (P00488 39-732): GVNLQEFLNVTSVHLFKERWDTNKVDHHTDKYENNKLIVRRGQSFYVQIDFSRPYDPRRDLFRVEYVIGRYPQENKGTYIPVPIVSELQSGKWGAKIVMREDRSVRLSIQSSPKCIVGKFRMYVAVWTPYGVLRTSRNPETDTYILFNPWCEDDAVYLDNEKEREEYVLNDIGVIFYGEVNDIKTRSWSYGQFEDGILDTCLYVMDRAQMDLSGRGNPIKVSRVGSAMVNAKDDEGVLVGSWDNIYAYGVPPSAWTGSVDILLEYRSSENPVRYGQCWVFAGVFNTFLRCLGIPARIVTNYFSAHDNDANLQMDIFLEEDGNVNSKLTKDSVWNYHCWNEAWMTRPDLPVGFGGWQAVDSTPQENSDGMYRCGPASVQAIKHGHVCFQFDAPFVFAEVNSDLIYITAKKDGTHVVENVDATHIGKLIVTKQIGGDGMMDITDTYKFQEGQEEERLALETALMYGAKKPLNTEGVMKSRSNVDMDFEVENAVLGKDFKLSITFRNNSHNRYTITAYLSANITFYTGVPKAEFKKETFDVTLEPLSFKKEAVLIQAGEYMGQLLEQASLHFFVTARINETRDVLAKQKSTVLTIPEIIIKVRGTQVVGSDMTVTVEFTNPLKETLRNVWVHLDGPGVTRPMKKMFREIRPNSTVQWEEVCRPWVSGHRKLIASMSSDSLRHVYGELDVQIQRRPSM
TG2, sequence (P21980 whole entry): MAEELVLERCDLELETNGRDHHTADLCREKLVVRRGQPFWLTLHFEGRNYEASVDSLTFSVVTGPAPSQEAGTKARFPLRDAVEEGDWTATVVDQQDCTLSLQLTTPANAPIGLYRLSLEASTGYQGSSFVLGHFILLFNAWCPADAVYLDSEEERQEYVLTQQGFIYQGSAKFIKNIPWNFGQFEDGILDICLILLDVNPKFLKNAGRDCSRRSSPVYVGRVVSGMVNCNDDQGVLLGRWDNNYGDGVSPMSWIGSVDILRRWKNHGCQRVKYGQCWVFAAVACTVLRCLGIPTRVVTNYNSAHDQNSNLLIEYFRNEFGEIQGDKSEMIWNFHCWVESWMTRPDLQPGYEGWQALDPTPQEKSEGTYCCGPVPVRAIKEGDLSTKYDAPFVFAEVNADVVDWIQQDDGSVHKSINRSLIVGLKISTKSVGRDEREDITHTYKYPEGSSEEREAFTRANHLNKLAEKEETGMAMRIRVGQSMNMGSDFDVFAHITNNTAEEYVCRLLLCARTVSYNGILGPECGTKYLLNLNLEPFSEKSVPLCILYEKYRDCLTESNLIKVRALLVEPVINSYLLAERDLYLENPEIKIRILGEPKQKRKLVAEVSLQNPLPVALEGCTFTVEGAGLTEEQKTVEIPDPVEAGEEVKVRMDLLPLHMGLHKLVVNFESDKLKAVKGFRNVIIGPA

Row | SMILES | IC50 (FXIII; Table 4, read-out: FXIII IC50) [nM] | Selectivity (TG2; Table 4) | IC50 (TG2; Table 4, read-out: TG2 IC50) [nM] | recovery at 2 h (in vitro) [%] | also measured
1 | CCOC(=O)/C=C/CC[C@H](NC(=O)OCc1ccccc1)C(=O)N[C@H](C(=O)N1CCC[C@H]1C(=O)N[C@H](C(=O)NCCC(C)C)C1CCCCC1)C(C)C [Ref. 10, reference compound] (Cbz-[Nle(5E-ene,6-CO2Et)]VP[Chg]-NHIsopentyl) | 8180 | 0.02 | 176 | – | –
2 | COC(=O)/C=C/CC[C@H](NC(=O)[C@H](CC(N)=O)NC(C)=O)C(=O)N[C@@H](CCC(=O)O)C(=O)N[C@@H](CCC(N)=O)C(=O)N[C@H](C(=O)N[C@@H](CO)C(=O)N1CCC[C@H]1C(=O)N[C@@H](CC(C)C)C(=O)N[C@H](C(=O)O)C(C)O)C(C)C (stereo partly drawn) [Ref. 20, reference compound] (Ac-N[X1]EQVSPL[Thr(3ξ)]-OH) | 8480 | 0.04 | 381 | – | –
3 | CCOC(=O)/C=C/CC[C@H](NC(=O)c1cc(C(=O)O)cc([N+](=O)[O-])c1)C(=O)N[C@H](C(=O)N1CC(=O)C[C@H]1C(=O)N[C@H](C(=O)NCCC(C)C)C1CCCCC1)C(C)(C)C [Compound 40] ({Benzoyl(3-COOH,5-NO2)}-[Nle(5E-ene,6-CO2Et)][Tle][Pro(4-oxo)][Chg]-NHIsopentyl) | 81 | 10.47 | 848 | > 75 | –
4 | COC(=O)/C=C/CC[C@H](NC(=O)[C@H](CC(N)=O)NC(C)=O)C(=O)N[C@@H](CCC(=O)O)C(=O)N[C@@H](CCC(N)=O)C(=O)N[C@H](C(=O)N[C@@H](CO)C(=O)N1CCC[C@H]1C(=O)N[C@@H](CC(C)C)C(=O)N[C@H](C(=O)N[C@@H](CC(C)C)C(=O)O)C(C)O)C(C)C (stereo partly drawn) [Ref. 19, reference compound] (Ac-N[X1]EQVSPL[Thr(3ξ)]L-OH) | 4980 | 0.07 | 370 | – | –
5 | C=C1C[C@@H](C(=O)N[C@@H](CC(C)C)C(=O)N[C@H](C(N)=O)C2CCCCC2)N(C(=O)[C@@H](NC(=O)[C@H](CC/C=C/C(=O)OCC)NC(=O)c2cc([N+](=O)[O-])ccc2C(=O)O)C(C)(C)C)C1 [Compound 42b] ({Benzoyl(2-COOH,5-NO2)}-[Nle(5E-ene,6-CO2Et)][Tle][Pro(4-methylene)]L[Chg]-NH2) | – | – | – | > 75 | –
6 | COC(=O)/C=C/CC[C@H](NC(=O)c1cncc(C(=O)O)c1)C(=O)N[C@H](C(=O)N1CCC[C@H]1C(=O)N[C@H](C(=O)N[C@H](C(N)=O)C1CCCCC1)C1CCCCC1)C(C)(C)C [Compound 27] (X4-[X1][Tle]P[Chg][Chg]-NH2) | – | – | – | > 75 | IC50 (FXIII; [1]): 27 nM; Selectivity (TG2; isopeptidase assay, Table 3): 2.4; IC50 (TG2; [2]): 64 nM
7 | CCOC(=O)/C=C/CC[C@H](NC(=O)c1cc(Cl)c(Cl)cc1C(=O)O)C(=O)N[C@H](C(=O)N1CCC[C@H]1C(=O)N[C@@H](CC(C)C)C(=O)N[C@H](C(N)=O)C1CCCCC1)C(C)C [Compound 38] ({Benzoyl(2-COOH-4,5-Cl2)}-[Nle(5E-ene,6-CO2Et)]VPL[Chg]-NH2) | 47 | 16.17 | 760 | > 75 | –
8 | COC(=O)/C=C/CC[C@H](NC(=O)c1ccncc1C(=O)O)C(=O)N[C@@H](CCSC)C(=O)N1CC(=O)C[C@H]1C(=O)N[C@H](C(=O)N[C@H](C(N)=O)C1CCCCC1)C1CCCCC1 [37a/b] ({Isonicotinoyl(3-COOH)}-[X1]M[Pro(4-oxo)][Chg][Chg]-NH2) | – | – | – | – | IC50 (FXIII; [1]): 69 nM; Selectivity (TG2; isopeptidase assay, Table 3): 4.7; IC50 (TG2; [2]): 324 nM; recovery in plasma determined by HPLC (in vitro): > 75%
9 | CCOC(=O)/C=C/CC[C@H](NC(=O)OCc1ccccc1)C(=O)N[C@@H](CCC(N)=O)C(=O)N1CCC[C@H]1C(=O)N[C@@H](CC(C)C)C(=O)N[C@H](C(N)=O)C1CCCCC1 [Ref. 09, reference compound] (Cbz-[Nle(5E-ene,6-CO2Et)]QPL[Chg]-NH2) | 5690 | – | 26 | – | –
10 | CCOC(=O)/C=C/CC[C@H](NC(=O)c1cccs1)C(=O)N[C@@H](CC1CC1)C(=O)N1CCC[C@H]1C(=O)N[C@@H](CC(C)C)C(=O)N[C@H](C(N)=O)C1CCCCC1 [Compound 41] (Thiophene2carbonyl-[Nle(5E-ene,6-CO2Et)][Ala(cPr)]PL[Chg]-NH2) | – | – | – | > 75 | –
11 | CCCC[C@H](NC(=O)[C@H](CC/C=C/C(=O)OC)NC(=O)[C@@H](CC(=O)O)NC(C)=O)C(=O)N[C@@H](CCCC)C(=O)N[C@@H](CC(C)C)C(=O)N1CCC[C@H]1C(=O)O [Ref. 14, reference compound] (Ac-[dD][X1][Nle][Nle]LP-OH) | > 10 | – | 2150 | – | half-life (in vitro): < 15 min
12 | COC(=O)/C=C/CC[C@H](NC(=O)[C@H](CC(N)=O)NC(C)=O)C(=O)N[C@@H](CCC(=O)O)C(=O)N[C@@H](CCC(N)=O)C(=O)N[C@H](C(=O)N[C@@H](CO)C(=O)N1CCC[C@H]1C(=O)N[C@@H](CC(C)C)C(=O)N[C@H](C(=O)N[C@@H](CC(C)C)C(=O)N[C@@H](CC(C)C)C(=O)N[C@@H](CCCCN)C(=O)O)C(C)O)C(C)C (stereo partly drawn) [Ref. 17, reference compound] (Ac-N[X1]EQVSPL[Thr(3ξ)]LLK-OH) | 420 | 0.54 | 227 | – | half-life (in vitro): < 15 min
13 | C=C1C[C@@H](C(=O)N[C@@H](CC(C)C)C(=O)N[C@H](C(N)=O)C2CCCCC2)N(C(=O)[C@@H](NC(=O)[C@H](CC/C=C/C(=O)OCC)NC(=O)c2ccc([N+](=O)[O-])cc2C(=O)O)C(C)(C)C)C1 [Compound 42a] (X2-[Nle(5E-ene,6-CO2Et)][Tle][Pro(4-methylene)]L[Chg]-NH2) | – | – | – | > 75 | –
14 | CCOC(=O)/C=C/CC[C@H](NC(=O)c1ccncc1C(=O)O)C(=O)N[C@H](C(=O)N1CC(=O)C[C@H]1C(=O)N[C@H](C(=O)N[C@H](C(N)=O)C1CCCCC1)C1CCCCC1)C(C)(C)C [8a/b] ({Isonicotinoyl(3-COOH)}-[Nle(5E-ene,6-CO2Et)][Tle][Pro(4-oxo)][Chg][Chg]-NH2) | – | – | – | – | IC50 (FXIII; [1]): 21 nM; Selectivity (TG2; isopeptidase assay, Table 3): 19.9; IC50 (TG2; [2]): 417 nM; recovery in plasma determined by HPLC (in vitro): > 75%
15 | CCCC[C@H](NC(=O)[C@H](CC/C=C/C(=O)OC)NC(=O)[C@@H]1CC(=O)CN1)C(=O)N[C@H](C(=O)N[C@@H](CC(C)C)C(=O)N1CCC[C@H]1C(=O)N[C@@H](Cc1c[nH]c2ccccc12)C(=O)N1CCC[C@H]1C(=O)O)C(C)CC (stereo partly drawn) [Ref. 23, reference compound] (H-[Pro(4-oxo)][X1][Nle][Ile(3ξ)]LPWP-OH) | 56 | 1.82 | 102 | – | half-life (in vitro): < 15 min
16 | COC(=O)/C=C/CC[C@H](NC(=O)c1nccnc1C(=O)O)C(=O)N[C@H](C(=O)N1CC(=O)C[C@H]1C(=O)N[C@H](C(=O)N[C@H](C(N)=O)C1CCCCC1)C1CCCCC1)C(C)(C)C [Compound 3] (X7-[X1][Tle][Pro(4-oxo)][Chg][Chg]-NH2) | – | – | – | > 75 | IC50 (FXIII; [1]): 20 nM; Selectivity (TG2; isopeptidase assay, Table 3): 0.8; IC50 (TG2; [2]): 16 nM
17 | CCOC(=O)/C=C/CC[C@H](NC(=O)OCc1ccccc1)C(=O)N[C@H](C(=O)N1CCCC[C@H]1C(=O)N[C@@H](CC(C)C)C(=O)OC)C(C)C [Ref. 6, reference compound] (Cbz-[Nle(5E-ene,6-CO2Et)]V[Pip]L-OMe) | – | – | – | – | IC50 (FXIII; [1]): > 10000 nM; IC50 (TG2; [2]): 48 nM
18 | COC(=O)/C=C/CC[C@H](NC(=O)[C@H](CC(N)=O)NC(C)=O)C(=O)N[C@@H](CCC(=O)O)C(=O)N[C@@H](CCC(N)=O)C(=O)N[C@H](C(=O)N[C@@H](CO)C(=O)N1CCC[C@H]1C(=O)N[C@@H](CC(C)C)C(=O)O)C(C)C [Ref. 21, reference compound] (Ac-N[X1]EQVSPL-OH) | > 10 | – | 421 | – | –
19 | CCOC(=O)/C=C/CC[C@H](NC(=O)OCc1ccccc1)C(=O)N[C@H](C(=O)N1CCC[C@H]1C(=O)N[C@@H](CC(C)C)C(=O)N[C@H](C(N)=O)C1CCCCC1)C(C)C [Ref. 08, reference compound] (Cbz-[Nle(5E-ene,6-CO2Et)]VPL[Chg]-NH2) | 3650 | 0.01 | 36 | – | –
20 | CCOC(=O)/C=C/CC[C@H](NC(=O)OCc1ccccc1)C(=O)N[C@H](C(=O)N1CCC[C@H]1C(=O)N[C@@H](CC(C)C)C(=O)N[C@H](C(N)=O)C1CCCCC1)C1CCCCC1 [Ref. 12, reference compound] (Cbz-[Nle(5E-ene,6-CO2Et)][Chg]PL[Chg]-NH2) | 6770 | 0.05 | 345 | – | –
21 | CCC(CC)CNC(=O)Cn1cccc(NC(=O)[C@H](CC/C=C/C(=O)OC)NC(=O)c2cncn2C)c1=O [Ref. 25] | > 10 | – | – | – | –
22 | CCOC(=O)/C=C/CC[C@H](NC(=O)c1cccs1)C(=O)N[C@@H](CCC(N)=O)C(=O)N1CCC[C@H]1C(=O)N[C@@H](CC(C)C)C(=O)N[C@H](C(N)=O)C1CCCCC1 [Ref. 11, reference compound] (Thiophene2carbonyl-[Nle(5E-ene,6-CO2Et)]QPL[Chg]-NH2) | 5360 | 0.05 | 253 | – | –
